Assay results taken from patent publication US20240075000A1 (priority 2021, published 2024).

What was measured:
Parkinson's patients = assay: double blinded placebo-controlled trial in Parkinson's patients, MDS-UPDRS fatigue question 1.13; assay type: in vivo, human; settings: 2 capsules benaGene (100 mg oxaloacetate/150 mg ascorbic acid) per day, 4 months, P value<0.05, 13 patients
Description: As used herein, the term “MDS-UPDRS” refers to the “Movement Disorder Society-Sponsored Revision of the United Parkinson's Disease Rating Scale” (Goetz et al, Movement Disorder Society-Sponsored Revision of the United Parkinson's Disease Rating Scale (MDS-UPDRS): Scale Presentation and Clinimetric Testing Results, Movement Disorders Vol. 23, No. 15, 2008, pp. 2129-2170).
Based on the findings of the Inventor, a clinical trial was performed on Parkinson's Disease patients. The trial used the MDS-UPDRS (Goetz et al, Movement Disorder Society-Sponsored Revision of the United Parkinson's Disease Rating Scale (MDS-UPDRS): Scale Presentation and Clinimetric Testing Results, Movement Disorders Vol. 23, No. 15, 2008, pp. 2129-2170) (45) as a validated method to clinically measure pathological fatigue in Parkinson's patients. The Fatigue question is as follows: • 1.13 Fatigue • Over the past week, have you usually felt fatigued? This feeling is not part of being sleepy or sad • 0: Normal: No fatigue • 1: Slight: Fatigue occurs.

ALS patient = ALS patient on long-term supplementation; assay type: in vivo, human; settings: 3,000 mg daily, after 8 months
From the text: For ALS, this is surprising and welcome news as the anticipated decline rate for this period of time ranges from 12% to 43% as measured by the ALS FRS. (Ong M L, Tan P F, Holbrook J D. Predicting functional decline and survival in amyotrophic lateral sclerosis. PLoS One. 2017; 12(4):e0174925. Published 2017 Apr. 13. doi:10.1371/journal.pone.0174925).
The patient's email: • “Dear Alan, Good afternoon. […] We are thrilled! Could we please have some more medicine? Thanks!”

glucose uptake = settings: diabetic patients and Alzheimer's patients; cited from earlier work
cancer patients = assay: cancer patient fatigue case reports (Examples 13-17); assay type: in vivo, human
From the text: A cancer patient with recurrent stage 4 glioblastoma multiforme encountered significant fatigue as part of the ongoing disease.
A cancer patient with Stage 2 primary prostate cancer experienced significant fatigue. […] The patient has been able to eliminate pathological fatigue for 4 years now and is continuing the dosage.
A cancer patient with stage 4 primary hepatocellular carcinoma experienced significant fatigue, and due to cancer progression, was placed in hospice.
A cancer patient with stage 4 breast cancer experienced pathological fatigue.
A cancer patient with stage 3 colon cancer experienced pathological fatigue. […] The patient continued to be fatigue-free and went into cancer remission, which was also fatigue free.

[1] = tested on: patient diagnosed with Fibromyalgia; assay: Fibromyalgia patient fatigue case; assay type: in vivo, human
From the text: A patient diagnosed with Fibromyalgia had significant fatigue. […] They increased their dosage to 6 capsules per day and has seen more than a 50% improvement in their fatigue.

[2] = tested on: mitochondrial production and density; settings: cited from earlier work
[3] = tested on: patients with post-COVID-19 fatigue; assay: clinical trial in Long Haul post-COVID-19 fatigue; settings: oral 500 mg BID, 6 weeks
Description: Fatigue is assessed by the Chalder Fatigue Scale, the Fatigue Severity Scale, and PROMIS-Fatigue-Short Form 7a. Scores are summarized as means and standard deviations and confidence intervals will be calculated. Changes are also summarized as effect sizes. […] All patients provided written informed consent to participate in the study prior to being screened.
18 patients who suffered from “Long Haul” post-COVID-19 fatigue for an average of 6 months were recruited to a clinical trial.

patients with ME/CFS = assay: clinical trial in ME/CFS, three dosage levels; assay type: in vivo, human
Mouse Soleus Muscle = settings: normal cells, fatigue stimulated by electrical current applied to the muscle; cited from earlier work
pneumonia patient = assay: fatigue after pneumonia, patient testimonial; assay type: in vivo, human; settings: 500 mg daily
From the text: The Inventor has supplied Anhydrous Enol-Oxaloacetate for fatigue after pneumonia. Pneumonia patients often suffer from physiological fatigue. In a retrospective study of 506 adults with clinical and radiographic evidence of pneumonia, […] of the patients suffered from fatigue at 90 days after diagnosis. (Metlay J P, Fine M J, Schulz R, Marrie T J, Coley C M, Kapoor W N, et al. Measuring symptomatic and functional recovery in patients with community-acquired pneumonia. J Gen Intern Med. 1997; 12(7):423-30). […] The place where oxaloacetate made the most significant difference for me was in alleviation of the crushing fatigue that accompanied the pneumonia. […] On querying nurses and physical therapists about this response, the universal answer was that it was “typical.” Speaking with people who had had pneumonia at different ages—granted that this is anecdotal—garnered consistent stories of extreme fatigue and a slow recovery that took years to achieve prior energy levels even with people who had been physically active teenagers at the time. • I was in the hospital for 2 weeks and then in skilled care for about 6 weeks, putting me in the 40% of the population that don't manage to avoid hospitalization. […]

[4] = tested on: post-COVID-19 fatigue patient; assay: post-COVID-19 fatigue case, physician (Example 3); settings: 500 mg BID
cancer cells = settings: glioblastoma; cited from earlier work
[5] = tested on: patient with Alzheimer's disease; assay: Alzheimer's disease patient fatigue case; assay type: in vivo, human; settings: caregiver testimonial
From the text: A patient with Alzheimer's disease experienced significant muscle and mental fatigue. […] The testimonial is shown below.

LD50 toxicity = settings: in vivo
Description: The dose ratio between toxic and therapeutic effects is the therapeutic index and it can be expressed as the ratio LD50/ED50. […] The “no observable adverse effects level” (NOAEL) in a 90-day sub-chronic rat study was 500 mg/kg (the highest dose in the test).

fetus = settings: in vivo; cited from earlier work
[6] = tested on: resistance-trained adults; settings: in vivo; cited from earlier work

O=C(O)CC(=O)C(=O)O [oxaloacetate, 2-oxobutanedioic Acid]
improvement of MDS-UPDRS fatigue score over baseline (Parkinson's patients): 28.7% | function, fatigue/muscle function (ALS patient): no decline in function | glucose uptake (glucose uptake): increase glucose uptake | pathological fatigue (cancer patients; Stage 2 primary prostate cancer, 1,000 mg daily, 4 years): ameliorated | adverse events (cancer patients; glioblastoma patient, 6,000 mg daily for one year): without any significant adverse events | side effects (cancer patients; hepatocellular carcinoma patient, 3,000 mg per day for 10 months): without side effects | side effects (cancer patients; prostate cancer patient, 1,000 mg daily): No side effects | fatigue associated with the cancer (cancer patients; recurrent stage 4 glioblastoma multiforme, 6,000 mg daily): ameliorated | fatigue (cancer patients; stage 3 colon cancer, 1,000 mg per day (500 mg BID)): significant reduction in fatigue | fatigue (cancer patients; stage 4 breast cancer, 1,000 mg per day, after 3 days): significant reduction in fatigue | fatigue (cancer patients; stage 4 primary hepatocellular carcinoma, 3,000 mg per day): significant reduction in fatigue | fatigue ([1]; 2 capsules of 100 mg per day): improvement | improvement in fatigue ([1]; 6 capsules of 100 mg per day): > 50% | mitochondrial production and density [2]: increased mitochondrial production and density | adverse events during the trial [3]: no significant adverse events | reduction in fatigue compared to baseline, PROMIS Fatigue Short Form 7a ([3]; 18 patients, P<0.005): 21% | reduction in fatigue from baseline, Fatigue Severity Scale ([3]; 18 patients, P<0.005): 15% | reduction of fatigue from baseline, Chalder Fatigue Scale ([3]; 18 patients, P<0.005): 45% | reduction, Visual Analogue Fatigue Scale ([3]; 18 patients, P<0.05): 56% | reduction from baseline fatigue, Chalder Fatigue Scale (patients with ME/CFS; 500 mg BID, 2 weeks, N=22): 15.3% | reduction in fatigue, Chalder Fatigue Scale (patients with ME/CFS; 500 mg BID, 6-weeks, N=22): 21.9% | reduction in fatigue, Chalder Fatigue Scale (patients with ME/CFS; 1,000 mg BID, 6-weeks, N=25): 30.2% | reduction in fatigue, Chalder Fatigue Scale (patients with ME/CFS; 1,000 mg TID, 2 weeks, N=22): 17.5% | severe Adverse Effects recorded in the study (patients with ME/CFS; 69 patients, all dosage levels): no severe Adverse Effects | patients in the study improved over historical placebo (patients with ME/CFS; historical placebo effect 5.9%): 76.8% | patients who experienced insomnia (patients with ME/CFS; of 69, resolved by moving dosing to breakfast and lunch): 1 patient | patients who experienced dyspepsia (patients with ME/CFS; of 69, resolved by taking with food): 4 patients | muscle endurance and muscle fatigue (Mouse Soleus Muscle): increase muscle endurance and reduce muscle fatigue | fatigue after Pneumonia (pneumonia patient): rapid resolution of fatigue | side effect reported by the patient [4]: nausea | glycolysis and formation of lactate (cancer cells): reducing both glycolysis and the formation of lactate | mental and physical pathological fatigue [5]: significantly reduces mental and physical pathological fatigue | LD50 (LD50 toxicity): above 5 g/kg of body weight

NC(=O)C[S+]([O-])C(c1ccccc1)c1ccccc1 (centres unmarked) [Modafinil]
animal reproduction studies, finding (fetus): adverse effect on the fetus

CC(N)Cc1ccccc1 (centres unmarked) [amphetamine]
animal reproduction studies, finding (fetus): adverse effect on the fetus

C[C@H](N)Cc1ccccc1 [dextroamphetamine]
animal reproduction studies, finding (fetus): adverse effect on the fetus

COC(=O)C(c1ccccc1)C1CCCCN1 (centres unmarked) [methylphenidate]
animal reproduction studies, finding (fetus): adverse effect on the fetus

Cn1c(=O)c2c(ncn2C)n(C)c1=O [Caffeine]
effects on muscular performance [6]: minimal effects on muscular performance
